Test system: Blood
Assay: Drug level in Homo sapiens (human) whole blood assessed as retention time by UPLC-TOF-MS analysis

SMILES	Retention_time [min]
O=C1Nc2ccc(Cl)cc2C(c2ccccc2Cl)=NC1O (stereo not given) [LORAZEPAM]	6.02
CN1C(=O)C(O)N=C(c2ccccc2Cl)c2cc(Cl)ccc21 (stereo not given) [LORMETAZEPAM]	6.41
CCCCc1nc(Cl)c(CO)n1Cc1ccc(-c2ccccc2-c2nn[nH]n2)cc1 [LOSARTAN]	6.09
CCN(CC)C(=O)[C@@H]1C=C2c3cccc4[nH]cc(c34)C[C@H]2N(C)C1 [LYSERGIDE]	4.88
CN1CCN=C(c2ccccc2)c2cc(Cl)ccc21 [MEDAZEPAM]	5.45
CCOC(=O)C1(c2ccccc2)CCN(C)CC1 [MEPERIDINE]	4.68
Cc1cccc(C)c1NC(=O)C1CCCCN1C (stereo not given) [MEPIVACAINE]	3.46
COc1cc(CCN)cc(OC)c1OC [MESCALINE]	2.77
CCC(=O)C(CC(C)N(C)C)(c1ccccc1)c1ccccc1 (stereo not given) [METHADONE]	6.03
CN[C@@H](C)Cc1ccccc1 [METHAMPHETAMINE]	2.86
Cc1ccccc1-n1c(C)nc2ccccc2c1=O [METHAQUALONE]	6.02
COC(=O)C(c1ccccc1)C1CCCCN1 (stereo not given) [METHYLPHENIDATE]	4.16
CCN(CC)CCNC(=O)c1cc(Cl)c(N)cc1OC [METOCLOPRAMIDE]	3.64
CN1CCN2c3ccccc3Cc3ccccc3C2C1 (stereo not given) [MIANSERIN]	5.48
Cc1ncc2n1-c1ccc(Cl)cc1C(c1ccccc1F)=NC2 [MIDAZOLAM]	5.45
CNC(C)Cc1ccc2c(c1)OCO2 (stereo not given) [MIDOMAFETAMINE]	2.89
CN1CCN2c3ncccc3Cc3ccccc3C2C1 (stereo not given) [MIRTAZAPINE]	3.91
O=C(NCCN1CCOCC1)c1ccc(Cl)cc1 [MOCLOBEMIDE]	3.39
C=CCN1CC[C@]23c4c5ccc(O)c4O[C@H]2C(=O)CC[C@@]3(O)[C@H]1C5 [NALOXONE]	2.46
COC(=O)C1=C(C)NC(C)=C(C(=O)OC)C1c1ccccc1[N+](=O)[O-] [NIFEDIPINE]	6.4
COCCOC(=O)C1=C(C)NC(C)=C(C(=O)OC(C)C)C1c1cccc([N+](=O)[O-])c1 (stereo not given) [NIMODIPINE]	7.14
O=C1CN=C(c2ccccc2)c2cc([N+](=O)[O-])ccc2N1 [NITRAZEPAM]	5.8

SMILES	Retention_time [min]
O=C1CC(=O)N(c2ccccc2)c2cc(Cl)ccc2N1 [NOR-CLOBAZAM]	5.61
NCCC(Oc1ccc(C(F)(F)F)cc1)c1ccccc1 (stereo not given) [NORFLUOXETINE]	6
CNCCC=C1c2ccccc2CCc2ccccc21 [NORTRIPTYLINE]	5.92
COc1ccc2c(c1OC)C(=O)O[C@@H]2[C@H]1c2c(cc3c(c2OC)OCO3)CCN1C [NOSCAPINE]	4.99
Cc1ccccc1C(OCCN(C)C)c1ccccc1 (stereo not given) [ORPHENADRINE]	5.75
NC(=O)N1c2ccccc2CC(=O)c2ccccc21 [OXCARBAZEPINE]	5.29
COc1ccc2c3c1O[C@H]1C(=O)CC[C@@]4(O)[C@@H](C2)N(C)CC[C@]314 [OXYCODONE]	2.67
CN1CC[C@]23c4c5ccc(O)c4O[C@H]2C(=O)CC[C@@]3(O)[C@H]1C5 [OXYMORPHONE]	1.78
COc1ccc(CC(C)N)cc1 (stereo not given) [PARA-METHOXYAMPHETAMINE]	2.91
Fc1ccc([C@@H]2CCNC[C@H]2COc2ccc3c(c2)OCO3)cc1 [PAROXETINE]	5.66
O=C1CN=C(c2ccccc2Cl)c2cc(Br)ccc2N1 [PHENAZEPAM]	6.45
c1ccc(C2(N3CCCCC3)CCCCC2)cc1 [PHENCYCLIDINE]	5.23
CC(C)(N)Cc1ccccc1 [PHENTERMINE]	3.08
O=c1[nH]c2ccccc2n1C1CCN(CCCC(c2ccc(F)cc2)c2ccc(F)cc2)CC1 [PIMOZIDE]	6.28
CC(C)NCC(O)COc1cccc2[nH]ccc12 (stereo not given) [PINDOLOL]	3
O=C1CN=C(c2ccccc2)c2cc(Cl)ccc2N1CC1CC1 [PRAZEPAM]	7.25
OC(CCN1CCCC1)(c1ccccc1)C1CCCCC1 (stereo not given) [PROCYCLIDINE]	5.78
CC(CN1c2ccccc2Sc2ccccc21)N(C)C (stereo not given) [PROMETHAZINE]	5.7
CCC(=O)O[C@](Cc1ccccc1)(c1ccccc1)[C@H](C)CN(C)C [PROPOXYPHENE]	5.98
CC(C)NCC(O)COc1cccc2ccccc12 (stereo not given) [PROPRANOLOL]	5.28
CN[C@@H](C)[C@@H](O)c1ccccc1 [PSEUDOEPHEDRINE]	2.28
COc1ccc(CN(CCN(C)C)c2ccccn2)cc1 [PYRILAMINE]	4.57

SMILES	Retention_time [min]
Fc1ccccc1C1=NCC(=S)N(CC(F)(F)F)c2ccc(Cl)cc21 [QUAZEPAM]	7.59
OCCOCCN1CCN(C2=Nc3ccccc3Sc3ccccc32)CC1 [QUETIAPINE]	5.35
CCOc1ccccc1OC(c1ccccc1)C1CNCCO1 (stereo not given) [REBOXETINE]	5.6
OCc1cc(C(O)CNCCCCCCOCCCCc2ccccc2)ccc1O (stereo not given) [SALMETEROL]	6.14
C#CCN(C)[C@H](C)Cc1ccccc1 [SELEGILINE]	3.55
O=C1NCCN1CCN1CCC(c2cn(-c3ccc(F)cc3)c3ccc(Cl)cc23)CC1 [SERTINDOLE]	6.3
CN[C@H]1CC[C@@H](c2ccc(Cl)c(Cl)c2)c2ccccc21 [SERTRALINE]	6.04
CC(C)NCC(O)c1ccc(NS(C)(=O)=O)cc1 (stereo not given) [SOTALOL]	2.02
CCN1CCCC1CNC(=O)c1cc(S(N)(=O)=O)ccc1OC (stereo not given) [SULPIRIDE]	2.21
CC(N)Cc1ccc2c(c1)OCO2 (stereo not given) [TENAMFETAMINE]	2.7
CC(C)(C)NCC(O)c1cc(O)cc(O)c1 (stereo not given) [TERBUTALINE]	1.93
CN1[C@H]2CC[C@@H]1[C@@H](C(=O)O)[C@@H](OC(=O)c1ccccc1)C2 [THERACYS]	3.48
CCCCNC(=O)NS(=O)(=O)c1ccc(C)cc1 [TOLBUTAMIDE]	6.16
COc1cccc(C2(O)CCCCC2CN(C)C)c1 (stereo not given) [TRAMADOL]	4.09
Cc1nnc2n1-c1ccc(Cl)cc1C(c1ccccc1Cl)=NC2 [TRIAZOLAM]	6.15
CC(CN(C)C)CN1c2ccccc2CCc2ccccc21 (stereo not given) [TRIMIPRAMINE]	6.05
COc1ccc(C(CN(C)C)C2(O)CCCCC2)cc1 (stereo not given) [VENLAFAXINE]	5.06
CCN(C(C)=O)c1cccc(-c2ccnc3c(C#N)cnn23)c1 [ZALEPLON]	5.68
CN(C)CCc1c[nH]c2ccc(C[C@H]3COC(=O)N3)cc12 [ZOLMITRIPTAN]	2.7
Cc1ccc(-c2nc3ccc(C)cn3c2CC(=O)N(C)C)cc1 [ZOLPIDEM]	4.78
CN1CCN(C(=O)OC2c3nccnc3C(=O)N2c2ccc(Cl)cn2)CC1 (stereo not given) [ZOPICLONE]	3.88

From ChEMBL document CHEMBL3045108, “Advanced QSRR models of toxicological screening of basic drugs in whole blood by UPLC-TOFMS” (Med Chem Res, 2012)
